Measurements as given in patent US20220281902A1, “MIT[…] IMPROVE METABOLIC SYNDROME DURING AGING” (The Board of Trustees of the Leland Stanford Junior …, priority 2019, published 2022).

Tests used:
[1] = tested on: HeLa cells; assay: In vivo cervical cancer mouse model; design: species or system mice
Protocol: To investigate the effects of an example compound on a cervical cancer mouse model, HeLa cells were introduced to the back of mice (five groups, 5-6 mice in each group). After the tumor volume reached about 200 mm^3, compound HG1a-1 solution (5, 20, 50 mg/kg) was dosed by intraperitoneal (IP) injection, every second day for ten days. Control mice were dosed with Saline and Taxol solution (PTX, 20 mg/kg). Tumor weight and volume were measured.

[2] = Chronic 10-week treatment of T2DM mice; format: in vivo
Protocol: Next, in a biased investigation on impact of partial inhibition as a potential anti-diabetic treatment, two groups of type 2 diabetes mellitus (T2DM) and healthy control mice were prepared. Four weeks after the verification of T2DM, diabetic mice began to receive the exemplary subject compound. The chronic treatment phase lasted for 10 weeks.

[3] = Intra-peritoneal glucose tolerance test (IPGTT); format: in vivo, C57BL/6 mice
Text: The C57BL/6 mice were maintained on a standard purified mouse diet (PicoLab 5053 Rodent Diet 20; Lab Diets) until they reached 2 months of age when the treatments started. The CR animals were subjected to a lifelong restriction on PicoLab 5053 Rodent Diet 20; Lab Diets, starting at 12 weeks of age, with a daily food allotment of 60% of that eaten by the ad lib animals. Besides CR animals, the C57BL/6 groups in this study were fed the standard high fat diet (HFD; 60 or 40% fat). Body weights were measured weekly at the same time each week. Food and water intake were measured once every month for 3-6 consecutive days at the same time each month. Water consumption was measured for 2 weeks prior to the start of administration. Compound was generated and modified for better permeability in to mitochondria, evaluated by HPLC, was 96%-97%. The administration began at 8 weeks of age and continued for 16 months, until they became 18-month-old. The drug solution was prepared weekly in small batches by dissolving the compound into autoclaved water at the respective doses and filtering sterilely. Aliquots were collected from each batch and measured by HPLC to confirm stability of the compound. Water bottles and cages were changed twice weekly. […] Rectal body temperature was measured monthly, as described previously. Whole blood samples, and histopathology were analyzed after 14 months of treatment. […]

[4] = target: T1, cytochrome c oxidase (CcO) (Mus musculus, UniProt P00397); assay: CcO activity in liver mitochondria of treated mice; format: in vivo
T1 construct: Mouse livers were extracted, and liver mitochondria were obtained using a mitochondria isolation kit; from tissue; host or cells: liver mitochondria of treated and control C57BL/6 mice, isolated with a Sigma-Aldrich mitochondria isolation kit; activity kit Sigma-Aldrich CYTOCOX1
Protocol: Measurement of CcO activity in liver mitochondria. Mouse livers were extracted, and liver mitochondria were obtained using a mitochondria isolation kit (Sigma-Aldrich). CcO activity in liver mitochondria was measured using a cytochrome c oxidase assay kit (Sigma-Aldrich, CYTOCOX1, USA.

[5] = tested on: TNF-α, IL-6, CRP, leptin receptor, CD68 transcripts; assay: qPCR of inflammatory factors, macrophage pan marker and leptin receptor; format: in vivo, mouse
Protocol: (§1) Gene expression & RT qPCR Analyses. Total RNA was isolated using a commercially available kit (OMEGA bio-tek, R6812-02) according to the manufacturer's instructions. cDNA was generated using the PrimeScript RT reagent kit (TAKARA, RR047A). Gene expression were determined by qPCR as described in the product manual. The analysis was evaluated by Bio-Rad Real-Time System (CFX Connect™).
(§2) RNAs from 10 mice (5 treated and 5 Ctrl.) VF fat or livers were isolated by using omega Bio-Tek reagents, and cDNA was transcribed by (TAKARA). qPCR was then performed by using iQ SYBR Green mastermix bioscience on a CFX96 Real-Time System/C1000 Thermal Cycler (Bio-Rad).

[6] = tested on: PGC-1α, NRF1, SIRT1, Atg5, PINK1, Parkin transcripts; assay: qPCR of mitochondriogenesis transcripts and mitophagy markers; format: in vivo, mouse
Protocol: as §1, §2

[7] = tested on: visceral fat adipocytes; assay: Histological analysis of white adipocyte size in visceral fat (toluidine blue O); format: in vivo, mouse
Protocol: Fluorescent microscopy. Adipose tissue was harvested and fixed in 4% paraformaldehyde (SigmaP6148). Adipocyte size was measured by staining for toluidine blue O in 5-20 μm-thick sections, paraffin embedded (Cell Signalling Technology, Tissue-Tek O.C.T.). adipocyte differentiations assessed by Oil Red 0 staining.

[8] = Single IP injection, body temperature and clinical pathology; format: in vivo, C57BL/6 mice; conditions: Day 4
Protocol: Body temperature integration in mouse. Three groups of male C57BL/6 mice received a single injection of the inhibitor at dose-levels of 0 (vehicle=N/S), average μM and max μM and were then kept for an 80 minute observation period until the BT was stabilized. Treatment was performed as a slow injection, IP, under a dosage volume of 0.5 mL/kg.
Rectal temperature was measured using a conventional thermometer in all groups at 0, 10, 15, 20, 30, 40, 50, 60, 70 and 80 minutes and repeated three times in 3 days.

[9] = Long-term oral administration in drinking water, tolerability; format: in vivo, C57BL/6 mice
Protocol: Animal experimentation. Male C57BL/6 mice (Shanghai SLAC Laboratory animal Co. Ltd) were group-housed in a barrier facility with 12-hr light/12-hr dark cycles. All mice received a regular chow diet ad libitum (PicoLab 5053 Rodent Diet 20; Lab Diets) except for HFD (40-60%) and CR models. The compound was then administered in drinking water ad libitum at either 90-100 or 100-120 mg/kg/day, based on the previously measured water consumption.
The C57BL/6 mice were maintained on a standard purified mouse diet (PicoLab 5053 Rodent Diet 20; Lab Diets) until they reached 2 months of age when the treatments started. […] Body weights were measured weekly at the same time each week. Food and water intake were measured once every month for 3-6 consecutive days at the same time each month. Water consumption was measured for 2 weeks prior to the start of administration. Compound was generated and modified for better permeability in to mitochondria, evaluated by HPLC, was 96%-97%. […] Aliquots were collected from each batch and measured by HPLC to confirm stability of the compound. […] Rectal body temperature was measured monthly, as described previously. Whole blood samples, and histopathology were analyzed after 14 months of treatment. […]

[10] = 5, 20 and 50 mg/kg IP, after 10 days
[11] = visceral fat, 14 months old mice
[12] = liver, 12- and 16-month chronic treatment

Question: For `Cc1ncsc1CCOC(=O)C[P+](c1ccccc1)(c1ccccc1)c1ccccc1.[Br-]` [HG1a-1, (2-(2-(4-Methylthiazol-5-yl)Ethoxy)-2-Oxoethyl) Triphenylphosphonium Bromide], which tumor size ([1]; 5, 20, 50 mg/kg IP every second day for ten days, with increasing dose) is on record?
Answer: decreased

Question: And the “tumor volume relative to saline control” value [1, 10]?
Answer: decreased

Question: What about the “tumor weight relative to saline control” value [1, 10] of the same molecule?
Answer: decreased

Question: What about the “drop of blood glucose level” value ([2]; after one week (23 mM at time 0)) of the same molecule?
Answer: 20%

Question: What about the “drop of blood glucose level” value ([2]; by week 3, reached healthy controls) of the same molecule?
Answer: 39%

Question: And the insulin elevations ([2]; week 3)?
Answer: negligible

Question: What about the “glucose tolerance (IPGTT)” value ([3]; after 6 months) of the same molecule?
Answer: normal glucose tolerance

Question: What about the “glucose tolerance (IPGTT)” value ([3]; young ages of 8 weeks and 12 weeks) of the same molecule?
Answer: mildly glucose-intolerant

Question: What about the CcO inhibition activity ([4]; 2 month old mice) of the same molecule?
Answer: 67%

Question: What about the “CcO function higher than controls of the same model” value ([4]; 12-month-long treated mice) of the same molecule?
Answer: about 20%

Question: And the “CcO function vs same age subjects receiving a single dose” value ([4]; 12-month-long treated mice)?
Answer: one-fold greater

Question: And the CcO inhibition activity ([4]; 14 month old mice)?
Answer: 65%

Question: What about the “leptin receptor transcript abundance increase” value ([5]; mouse livers) of the same molecule?
Answer: 2 fold

Question: What about the “decline in abundance of CD68” value ([5]; visceral fat) of the same molecule?
Answer: 5 fold

Question: And the CRP transcript [5, 11]?
Answer: trivial changes

Question: What about the IL-6 transcript [5, 11] of the same molecule?
Answer: declined markedly

Question: And the TNF-α transcript [5, 11]?
Answer: declined markedly

Question: What about the Atg5 transcript level ([6]; adipose tissue) of the same molecule?
Answer: enhancement

Question: What about the Atg5 transcript level [6, 12] of the same molecule?
Answer: noticeable upgrade

Question: And the PINK1 transcript level [6, 12]?
Answer: noticeable upgrade

Question: And the Parkin transcript level [6, 12]?
Answer: noticeable upgrade

Question: And the SIRT1 transcript level ([6]; liver, longer course of treatment)?
Answer: significant enhancement

Question: What about the NRF1 transcript level ([6]; livers of aged mice) of the same molecule?
Answer: increased notably

Question: What about the PGC-1α transcript level ([6]; livers of aged mice) of the same molecule?
Answer: increased notably

Question: What about the “visceral fat adipocyte size and cell perimeter” value ([7]; 5 month old treated mice) of the same molecule?
Answer: minor changes

Question: What about the “adipocyte shrinkage in size and perimeter compared to control” value ([7]; 12 month old treated mice) of the same molecule?
Answer: 3 fold

Question: And the “clinical pathology (physicals) 24 h after treatment” value [8]?
Answer: within the normal baseline range

Question: And the “tolerability of long-term regulated mitochondrial inhibition” value ([9]; 18 month long treatment)?
Answer: well-tolerated without any deleterious effect

Question: And the “mortality due to oral administration” value ([9]; oral, 18-20 months)?
Answer: no mice died
